ChEMBL document CHEMBL1201862, “PubChem BioAssay data set” (2004)
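Step 1: Grow cells in 96-well plates. Step 2: Expose to compound for 48 hours at 5 concentrations. Step 3: Interpolate endpoints linearly; if unreached, use highest concentration. GI50 marks 50% less growth.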 Active and inactive are the calls of the source. Cut-off read from the data, not from the text of the source: active = GI50 up to about 1.1 µM and inactive = higher.

Key:
Test in all cases: growth of human tumour cells (NCI), 48 h
786-0 = tested on: 786-0
A549 = tested on: A549
COLO 205 = tested on: COLO 205
EKVX = tested on: EKVX
HT-29 = tested on: HT-29
MCF7 = tested on: MCF7
MDA-MB-231 = tested on: MDA-MB-231
Malme-3M = tested on: Malme-3M
NCI-H226 = tested on: NCI-H226
NCI-H460 = tested on: NCI-H460
NCI/ADR-RES = tested on: NCI/ADR-RES
OVCAR-3 = tested on: OVCAR-3
OVCAR-5 = tested on: OVCAR-5
SK-MEL-28 = tested on: SK-MEL-28
SNB-75 = tested on: SNB-75
SW-620 = tested on: SW-620
UO-31 = tested on: UO-31
HL-60 = tested on: HL-60
BT-549 = tested on: BT-549

Compound | GI50 (786-0) | GI50 (A549) | GI50 (COLO 205) | GI50 (EKVX) | GI50 (HT-29) | GI50 (MCF7) | GI50 (MDA-MB-231) | GI50 (Malme-3M) | GI50 (NCI-H226) | GI50 (NCI-H460) | GI50 (NCI/ADR-RES) | GI50 (OVCAR-3) | GI50 (OVCAR-5) | GI50 (SK-MEL-28) | GI50 (SNB-75) | GI50 (SW-620) | GI50 (UO-31) | GI50 (HL-60) | GI50 (BT-549)
C[Si](C)(C)CCOCN(C(=O)C1=CCC2(CC1)OCCO2)c1ccccc1I | 17.7 µM (inactive) | 23.6 µM (inactive) | 37.4 µM (inactive) | 14.8 µM (inactive) | 34.3 µM (inactive) | 14.2 µM (inactive) | 22.8 µM (inactive) | 35.7 µM (inactive) | 22.9 µM (inactive) | 20 µM (inactive) | 26.7 µM (inactive) | 21.6 µM (inactive) | 20 µM (inactive) | 19.4 µM (inactive) | 17.7 µM (inactive) | 22.3 µM (inactive) | 19.4 µM (inactive) |  | 
COC(=O)CNC(=O)CCSc1nnc(COc2ccc(Cl)cc2)n1-c1ccccc1 | 20.2 µM (inactive) | 68.2 µM (inactive) | 32.1 µM (inactive) | 59.6 µM (inactive) | 27.5 µM (inactive) | 71.3 µM (inactive) | 21 µM (inactive) | 25.8 µM (inactive) | 16 µM (inactive) | 31.4 µM (inactive) | 42.6 µM (inactive) | 30.9 µM (inactive) | 47.8 µM (inactive) | 23.7 µM (inactive) | 20.4 µM (inactive) | 39.5 µM (inactive) | 34.8 µM (inactive) | 30 µM (inactive) | 
CCOC(=O)c1c(N2CCOCC2)[nH]c(=O)c(C(c2ccc(OC)cc2)c2c(O)c(C(=O)OCC)c(N3CCOCC3)[nH]c2=O)c1O | > 100 µM (inactive) | > 100 µM (inactive) | > 100 µM (inactive) | > 100 µM (inactive) | > 100 µM (inactive) | > 100 µM (inactive) | > 100 µM (inactive) | > 100 µM (inactive) | > 100 µM (inactive) | > 100 µM (inactive) | > 100 µM (inactive) | > 100 µM (inactive) | > 100 µM (inactive) | > 100 µM (inactive) | > 100 µM (inactive) | > 100 µM (inactive) | > 100 µM (inactive) |  | > 100 µM (inactive)
CC1(C)C=C(/C=N/Nc2ccc(Br)cc2)C(C#N)=C(O)C1(C#N)C#N | 47.2 µM (inactive) | 39.2 µM (inactive) | 19.8 µM (inactive) | 54.3 µM (inactive) | 40.8 µM (inactive) | 26.5 µM (inactive) | 39.5 µM (inactive) | 89.7 µM (inactive) | 88.3 µM (inactive) | 33.1 µM (inactive) | 45.2 µM (inactive) | 31.9 µM (inactive) | > 100 µM (inactive) | 81.8 µM (inactive) | 66.4 µM (inactive) | 36.5 µM (inactive) | 22.8 µM (inactive) | 26.1 µM (inactive) | 
O=CN(CCN1CCCC1)C1CCc2cc(Cl)c(Cl)cc2C1 (centres undefined) | 7.55 µM (inactive) | 7.71 µM (inactive) | 20.4 µM (inactive) | 27.2 µM (inactive) | 5.75 µM (inactive) |  | 11 µM (inactive) | 13.6 µM (inactive) |  | 0.196 µM (active) | 19.5 µM (inactive) | 12.3 µM (inactive) | 17.4 µM (inactive) |  |  | 27.3 µM (inactive) | 14.1 µM (inactive) | 19.2 µM (inactive) | 14.1 µM (inactive)
C=CC1C(OC2OC(CO)C(O)C(O)C2O)OC=C(C(=O)OC)C1CC=O (centres undefined) | > 100 µM (inactive) | > 100 µM (inactive) | > 100 µM (inactive) | > 100 µM (inactive) |  |  |  | > 100 µM (inactive) | 37.8 µM (inactive) |  |  | > 100 µM (inactive) |  | > 100 µM (inactive) | > 100 µM (inactive) | 81.8 µM (inactive) | > 100 µM (inactive) | > 100 µM (inactive) | 
CC(C)(/C=N/O)/[N+]([O-])=C/c1ccccc1 | > 100 µM (inactive) | > 100 µM (inactive) | > 100 µM (inactive) | > 100 µM (inactive) | > 100 µM (inactive) | > 100 µM (inactive) | > 100 µM (inactive) | > 100 µM (inactive) | > 100 µM (inactive) | > 100 µM (inactive) | > 100 µM (inactive) | > 100 µM (inactive) | > 100 µM (inactive) | > 100 µM (inactive) | > 100 µM (inactive) | > 100 µM (inactive) | > 100 µM (inactive) |  | 
COc1ccccc1N1C(=O)/C(=C\c2ccccc2)SC1c1cc(OC)c(OC)c(OC)c1 (centres undefined) | 32.2 µM (inactive) | 40.7 µM (inactive) | 35.9 µM (inactive) | 37.8 µM (inactive) | 33.3 µM (inactive) | 32.3 µM (inactive) | 23.2 µM (inactive) | 45.5 µM (inactive) | > 100 µM (inactive) |  | 32.1 µM (inactive) |  | 62.5 µM (inactive) | 54 µM (inactive) |  |  | 45.4 µM (inactive) |  | 34.8 µM (inactive)
COC(=O)c1cc(C)ccc1/C=C1\Cc2cccc(C)c2C1=O | 50.4 µM (inactive) | 28.2 µM (inactive) |  | 33.1 µM (inactive) | 12.8 µM (inactive) | 30.5 µM (inactive) | 26.7 µM (inactive) | 20.5 µM (inactive) | 58.3 µM (inactive) | > 100 µM (inactive) |  | 19.5 µM (inactive) | 78.7 µM (inactive) | 62.1 µM (inactive) | 35.1 µM (inactive) | 31.6 µM (inactive) | 44.7 µM (inactive) | 19.7 µM (inactive) | 17.6 µM (inactive)
CSC1=N/C(=C\c2ccc(Cl)cc2)C(=O)N1CN1CCOCC1 | 33.4 µM (inactive) | > 100 µM (inactive) | 28.9 µM (inactive) | 53.5 µM (inactive) | 27.5 µM (inactive) | 5.75 µM (inactive) | 43 µM (inactive) | 52.2 µM (inactive) | 46.8 µM (inactive) |  | 40.6 µM (inactive) | 41.7 µM (inactive) | 87.9 µM (inactive) | > 100 µM (inactive) | 55.2 µM (inactive) | 36.7 µM (inactive) | 23 µM (inactive) |  | 
COc1ccc(N2CC(=O)N(C(=O)COc3ccc(OCC(=O)N4C(=O)CN(c5ccc(OC)cc5)C4=S)cc3)C2=S)cc1 | > 100 µM (inactive) | 46.9 µM (inactive) | > 100 µM (inactive) | 81.1 µM (inactive) | 57.9 µM (inactive) | 48.6 µM (inactive) | > 100 µM (inactive) | 4.47 µM (inactive) | > 100 µM (inactive) | 59.2 µM (inactive) | > 100 µM (inactive) |  | > 100 µM (inactive) | > 100 µM (inactive) | > 100 µM (inactive) | > 100 µM (inactive) | > 100 µM (inactive) |  | > 100 µM (inactive)
COc1cccc(C(=O)Oc2ccc(OS(=O)(=O)c3ccc(C)cc3)cc2)c1C#N | 86.9 µM (inactive) | 23.6 µM (inactive) | 71.4 µM (inactive) | 59.8 µM (inactive) | 78.5 µM (inactive) | 49.7 µM (inactive) | 65.6 µM (inactive) | 32.4 µM (inactive) | > 100 µM (inactive) | 49.5 µM (inactive) | 33 µM (inactive) | 29.9 µM (inactive) | > 100 µM (inactive) | > 100 µM (inactive) | > 100 µM (inactive) | > 100 µM (inactive) | 28.3 µM (inactive) | 34.1 µM (inactive) | 
CC[C@H](CC[C@@H](C)[C@H]1CC[C@H]2[C@@H]3CC=C4C[C@@H](O)CC[C@]4(C)[C@H]3CC[C@]12C)C(C)C [BETA-SITOSTEROL] | > 100 µM (inactive) | > 100 µM (inactive) | > 100 µM (inactive) | > 100 µM (inactive) | > 100 µM (inactive) | > 100 µM (inactive) | > 100 µM (inactive) | > 100 µM (inactive) | > 100 µM (inactive) | > 100 µM (inactive) | > 100 µM (inactive) | > 100 µM (inactive) | > 100 µM (inactive) | > 100 µM (inactive) | > 100 µM (inactive) | > 100 µM (inactive) | > 100 µM (inactive) | > 10 µM (inactive) | 
N#C/C(C(=O)Nc1ccccc1)=C(/N)N1CCOCC1 | > 100 µM (inactive) | > 100 µM (inactive) | > 100 µM (inactive) | > 100 µM (inactive) |  | > 100 µM (inactive) |  |  | > 100 µM (inactive) | > 100 µM (inactive) | > 100 µM (inactive) | > 100 µM (inactive) | > 100 µM (inactive) | > 100 µM (inactive) | > 100 µM (inactive) | > 100 µM (inactive) | > 100 µM (inactive) |  | > 100 µM (inactive)
O=C1C=C[C@@]23CC1C(O)C[C@H]2C=Cc1ccccc13 (some centres undefined) | > 100 µM (inactive) | > 100 µM (inactive) | > 100 µM (inactive) |  | > 100 µM (inactive) |  |  | > 100 µM (inactive) | > 100 µM (inactive) | > 100 µM (inactive) |  | > 100 µM (inactive) | > 100 µM (inactive) |  | 91.6 µM (inactive) | > 100 µM (inactive) | > 100 µM (inactive) | > 100 µM (inactive) | 
ON=C(CC(O)(C(F)(F)Cl)C(F)(F)Cl)CC(O)(C(F)(F)Cl)C(F)(F)Cl | 5.21 µM (inactive) | 5.46 µM (inactive) | 5.04 µM (inactive) | 5.04 µM (inactive) | 9.14 µM (inactive) | 3.87 µM (inactive) |  | 2.99 µM (inactive) | 4.07 µM (inactive) | 4.1 µM (inactive) | 4.69 µM (inactive) | 3.23 µM (inactive) |  | 6.27 µM (inactive) | 6.61 µM (inactive) | > 10 µM (inactive) | 3.33 µM (inactive) | 4.1 µM (inactive) | 
